Results on 17 compounds are retold here after US20140357655A1, “SPIROINDOLINE DERIVATIVES AS GONADOTROPIN- RELEASING HORMONE RECEPTOR ANTAGONISTS” (Bayer Intellectual Property GmbH, priority 2012, published 2014).

The assay has as its target T1, human GnRH receptor (Homo sapiens, UniProt P30968).
T1 sequence (P30968 1-328): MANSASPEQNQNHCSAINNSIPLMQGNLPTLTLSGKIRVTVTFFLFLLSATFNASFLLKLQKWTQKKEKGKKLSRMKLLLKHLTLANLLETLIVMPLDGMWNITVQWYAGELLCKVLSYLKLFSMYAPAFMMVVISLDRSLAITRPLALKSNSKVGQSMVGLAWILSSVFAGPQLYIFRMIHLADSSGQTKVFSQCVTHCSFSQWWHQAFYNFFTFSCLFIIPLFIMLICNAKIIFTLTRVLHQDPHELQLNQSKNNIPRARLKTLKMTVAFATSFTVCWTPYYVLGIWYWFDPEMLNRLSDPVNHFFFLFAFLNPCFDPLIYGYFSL
The assay can be described thus: IP-One HTRF assay with buserelin (at EC80) stimulation. The class given is cell-based. To be noted: CHO cells stably expressing human GnRH receptor, read-out: Potency in IP-One HTRF assay, given as IC50. The text has this: 2.3. IP-One HTRF® Assay By using homogenous time-resolved fluorescence resonance energy transfer (HTRF), the generation of one component of the GnRH—R signalling cascade can be measured. After stimulation of CHO cells stably expressing human GnRH receptor (established by Prof. Thomas Gudermann, currently University of Marburg, Germany; supplied as frozen cell aliquots by Cell Culture Services, Hamburg, Germany) with the EC80 of the GnRH agonist buserelin, Gq protein-coupled receptor signalling cascade is activated resulting in PLC-dependent cleavage of PIP2 to Inositol-1,4,5-triphosphate (IP3) and Diacylglycerol. The second messenger IP3 is degraded intracellularly to myo-inositol. Inhibition of the final degradation step from Inositol-1-phosphate (IP1) to myo-inositol by addition of lithium chloride leads to accumulation of IP1 in the cells. In cell lysates, IP1 can be detected via an antibody-based HTRF detection technology, where IP1 can displace the FRET acceptor IP1-d2 from binding by Terbium-labelled anti-IP1 antibody as donor resulting in a signal decrease. Compounds were tested for their capability of inhibiting GnRH—R activation by buserelin. For all IP-One HTRF® assays reagents of Cisbio Bioassays (IP-One Tb Jumbo kit, #62IPAPEJ; Cisbio Bioassays, Bagnols sur Cèze Cedex, France) were used.
For the assay, frozen cell aliquots were thawed and a cell suspension (3.33×10^6 cells/mL) containing IP1-d2 (dilution 1:40) was prepared and incubated at 37° C. After 1 h 3 μl of the cell suspension were added to 50 nl of a 100-fold concentrated solution of the test compound in DMSO pre-dispensed in a well of a white low-volume 384-well microtiter plate (Greiner Bio-One, Frickenhausen, Germany). […] Plates were incubated for 1 h at 37° C. and 5% carbon dioxide before the cells were lysed by adding 3 μl Terbium-labelled anti-IP1 antibody (1:40) diluted in Conjugate & Lysis buffer as supplied with the kit. After an incubation for 1 h at 22° C. to enable complete cell lysis and antibody binding to free IP1 or IP1-d2, plates were measured in an HTRF reader, e.g. a RUBYstar, PHERAstar (both BMG Labtechnologies, Offenburg, Germany) or a Viewlux (PerkinElmer LAS, Rodgau-Jügesheim, Germany).
From the fluorescence emissions at 665 nm (FRET) and at 620 nm (background signal of Terbium-antibody), the ratio (emission at 665 nm divided by emission at 620 nm) was calculated and the data were normalized (reaction without test compound=0% inhibition; all other assay components except agonist=100% inhibition). On the same microtiter plate, compounds were tested at 10 different concentrations in the range of 20 μM to 1 nM (20 μM, 6.7 μM, 2.2 μM, 0.74 μM, 0.25 μM, 82 nM, 27 nM, 9.2 nM, 3.1 nM and 1 nM; dilution series prepared before the assay at the level of the 100-fold conc. stock solutions by serial 1:3 dilutions in 100% DMSO) in duplicate values for each concentration. By using an in-house software, the IC50 values were calculated by a 4 parameter fit.
(In TR-FRET formats the signal depends on donor and acceptor labels being close together.)
As usually defined, the IC50 is the concentration that inhibits the measured activity by half. For `CC1N(S(=O)(=O)c2ccc(F)cc2)c2ccc(C(=O)NCc3ncccc3Cl)cc2C12CCOCC2` (racemic) [Example 1, N-[(3-Chloropyridin-2-yl)methyl]-1-[(4-fluorophenyl)sulfonyl]-2-methyl-1,2,2′,3′,5′,6′-hexahydrospiro[indole-3,4′-pyran]-5-carboxamide], the IC50 was 584 nM.

For `O=C(NCc1ccccc1Cl)c1ccc2c(c1)C1(CCSCC1)C(C1CC1)N2S(=O)(=O)c1ccc(F)cc1` (racemic) [Example 12, N-(2-Chlorobenzyl)-2-cyclopropyl-1-[(4-fluorophenyl)sulfonyl]-1,2,2′,3′,5′,6′-hexahydrospiro[indole-3,4′-thiopyran]-5-carboxamide], the IC50 came out at 186 nM.

As for `O=C(NCc1ncccc1Cl)c1ccc2c(c1)C1(CCS(=O)(=O)CC1)C(C1CC1)N2S(=O)(=O)c1ccc(F)cc1` (racemic) [Example 14, N-[(3-Chloropyridin-2-yl)methyl]-2-cyclopropyl-1-[(4-fluorophenyl)sulfonyl]-1,2,2′,3′,5′,6′-hexahydrospiro[indole-3,4′-thiopyran]-5-carboxamide 1′,1′-dioxide], the IC50 worked out at 245 nM.

As to `CC1N(S(=O)(=O)c2ccc(F)cc2)c2ccc(C(=O)NCc3ncccc3Cl)cc2C12CCOCC2` (single isomer, unassigned) [Example 1.1, N-[(3-Chloropyridin-2-yl)methyl]-1-[(4-fluorophenyl)sulfonyl]-2-methyl-1,2,2′,3′,5′,6′-hexahydrospiro[indole-3,4′-pyran]-5-carboxamide], the IC50 was found to be 146 nM.

For the compound `CC1N(S(=O)(=O)c2ccc(F)cc2)c2ccc(C(=O)NCc3ncccc3Cl)cc2C12CCOCC2` (single isomer, unassigned) [Example 1.2, N-[(3-Chloropyridin-2-yl)methyl]-1-[(4-fluorophenyl)sulfonyl]-2-methyl-1,2,2′,3′,5′,6′-hexahydrospiro[indole-3,4′-pyran]-5-carboxamide], the IC50 was determined as 19500 nM.

Consider `CC1N(S(=O)(=O)c2ccc(F)cc2)c2ccc(C(=O)NCc3ccccc3Cl)cc2C12CCOCC2` (single isomer, unassigned) [Example 2.1, N-(2-chlorobenzyl)-1-[(4-fluorophenyl)sulfonyl]-2-methyl-1,2,2′,3′,5′,6′-hexahydrospiro[indole-3,4′-pyran]-5-carboxamide], for which the IC50 stood at 9320 nM.

Turning to `CC1N(S(=O)(=O)c2ccc(F)cc2)c2ccc(C(=O)NCc3ccccc3Cl)cc2C12CCOCC2` (single isomer, unassigned) [Example 2.2, N-(2-chlorobenzyl)-1-[(4-fluorophenyl)sulfonyl]-2-methyl-1,2,2′,3′,5′,6′-hexahydrospiro[indole-3,4′-pyran]-5-carboxamide], the IC50 is 83 nM.

`CC1N(S(=O)(=O)c2ccc(F)cc2)c2ccc(C(=O)NCc3ncccc3C(F)(F)F)cc2C12CCOCC2` (single isomer, unassigned) [Example 3.1, 1-[(4-fluorophenyl)sulfonyl]-2-methyl-N-{[3-(trifluoromethyl)pyridin-2-yl]methyl}-1,2,2′,3′,5′,6′-hexahydrospiro[indole-3,4′-pyran]-5-carboxamide]: the IC50 came to 226 nM.

Take `CC1N(S(=O)(=O)c2ccc(F)cc2)c2ccc(C(=O)NCc3ncccc3C(F)(F)F)cc2C12CCOCC2` (single isomer, unassigned) [Example 3.2, 1-[(4-fluorophenyl)sulfonyl]-2-methyl-N-{[3-(trifluoromethyl)pyridin-2-yl]methyl}-1,2,2′,3′,5′,6′-hexahydrospiro[indole-3,4′-pyran]-5-carboxamide]: the IC50 is > 20000 nM.

On to `O=C(NCc1ccccc1Cl)c1ccc2c(c1)C1(CCSCC1)C(C1CC1)N2S(=O)(=O)c1ccc(F)cc1` (single isomer, unassigned) [Example 12.1, N-(2-Chlorobenzyl)-2-cyclopropyl-1-[(4-fluorophenyl)sulfonyl]-1,2,2′,3′,5′,6′-hexahydrospiro[indole-3,4′-thiopyran]-5-carboxamide], for which the IC50 amounted to 178 nM.

Consider `O=C(NCc1ccccc1Cl)c1ccc2c(c1)C1(CCSCC1)C(C1CC1)N2S(=O)(=O)c1ccc(F)cc1` (single isomer, unassigned) [Example 12.2, N-(2-Chlorobenzyl)-2-cyclopropyl-1-[(4-fluorophenyl)sulfonyl]-1,2,2′,3′,5′,6′-hexahydrospiro[indole-3,4′-thiopyran]-5-carboxamide], for which the IC50 stood at 3730 nM.

As to `O=C(NCc1ccccc1Cl)c1ccc2c(c1)C1(CC[S+]([O-])CC1)C(C1CC1)N2S(=O)(=O)c1ccc(F)cc1` (single isomer, unassigned) [Example 13.2, N-(2-Chlorobenzyl)-2-cyclopropyl-1-[(4-fluorophenyl)sulfonyl]-1,2,2′,3′,5′,6′-hexahydrospiro[indole-3,4′-thiopyran]-5-carboxamide 1′-oxide], the IC50 amounted to 383 nM.

On to `O=C(NCc1ncccc1Cl)c1ccc2c(c1)C1(CCS(=O)(=O)CC1)C(C1CC1)N2S(=O)(=O)c1ccc(F)cc1` (single isomer, unassigned) [Example 14.2, N-[(3-Chloropyridin-2-yl)methyl]-2-cyclopropyl-1-[(4-fluorophenyl)sulfonyl]-1,2,2′,3′,5′,6′-hexahydrospiro[indole-3,4′-thiopyran]-5-carboxamide 1′,1′-dioxide], for which the IC50 stood at 5390 nM.

`O=C(NCc1ncccc1C(F)(F)F)c1ccc2c(c1)C1(CCS(=O)(=O)CC1)C(C1CC1)N2S(=O)(=O)c1ccc(F)cc1` (single isomer, unassigned) [Example 15.1, 2-cyclopropyl-1-[(4-fluorophenyl)sulfonyl]-N-{[3-(trifluoromethyl)pyridin-2-yl]methyl}-1,2,2′,3′,5′,6′-hexahydrospiro[indole-3,4′-thiopyran]-5-carboxamide 1′,1′-dioxide]: the IC50 is > 20000 nM.

Turning to `O=C(NCc1ncccc1C(F)(F)F)c1ccc2c(c1)C1(CCS(=O)(=O)CC1)C(C1CC1)N2S(=O)(=O)c1ccc(F)cc1` (single isomer, unassigned) [Example 15.2, 2-cyclopropyl-1-[(4-fluorophenyl)sulfonyl]-N-{[3-(trifluoromethyl)pyridin-2-yl]methyl}-1,2,2′,3′,5′,6′-hexahydrospiro[indole-3,4′-thiopyran]-5-carboxamide 1′,1′-dioxide], the IC50 stood at 69 nM.

Take `O=C(NCc1ccc(F)cc1Cl)c1ccc2c(c1)C1(CCS(=O)(=O)CC1)C(C1CC1)N2S(=O)(=O)c1ccc(F)cc1` (single isomer, unassigned) [Example 16.1, N-(2-chloro-4-fluorobenzyl)-2-cyclopropyl-1-[(4-fluorophenyl)sulfonyl]-1,2,2′,3′,5′,6′-hexahydrospiro[indole-3,4′-thiopyran]-5-carboxamide 1′,1′-dioxide]: the IC50 worked out at 62 nM.

In the case of `O=C(NCc1ccc(F)cc1Cl)c1ccc2c(c1)C1(CCS(=O)(=O)CC1)C(C1CC1)N2S(=O)(=O)c1ccc(F)cc1` (single isomer, unassigned) [Example 16.2, N-(2-chloro-4-fluorobenzyl)-2-cyclopropyl-1-[(4-fluorophenyl)sulfonyl]-1,2,2′,3′,5′,6′-hexahydrospiro[indole-3,4′-thiopyran]-5-carboxamide 1′,1′-dioxide], the IC50 is 6840 nM.
